Source: PMC4638191, “Multicomponent reaction-based synthesis and biological evaluation of tricyclic heterofused quinolines with multi-trypanosomatid activity” (European Journal of Medicinal Chemistry, 2015)
Like-named read-outs stand apart in the source and are kept apart here. Marks after values point to notes of the source that are not given here.

Tests used:
[1] = in vitro; details: rat
Description: (§1) Cytotoxicity against mammalian cells was assessed using microtitre plates following a described procedure [58]. Briefly, rat skeletal muscle L6 cells were seeded at 1 × 10^4 mL^−1 in 200 μL of growth medium containing different compound concentrations. The plates were incubated for 6 days at 37 °C and 20 μL resazurin was then added to each well. After a further 8 h incubation, the fluorescence was determined using a Spectramax plate reader.

[2] = tested on: T. cruzi strain MHOM/ES/2203/BCN590 (Tcl) epimastigote forms; assay: Activity against epimastigotes of T. cruzi (cell counting); details: mean ± SD of duplicate experiments performed at least twice
[3] = tested on: L. infantum strain MCAN/ES/92/BCN722 promastigote forms; assay: Activity against promastigotes of L. infantum (acid phosphatase); type: cell-based, Leishmania infantum; details: promastigote form, mean ± SD of duplicate experiments performed at least twice
[4] = target: T1, Electrophorus electricus AChE (EeAChE) (Electrophorus electricus, UniProt O42275); assay: biochemical; type: biochemical; details: for inhibition at 30 µM: the IC50 could not be determined; for IC50: mean ± SEM
[5] = tested on: bloodstream form T. brucei (strain 221); assay: Trypanocidal activity against cultured bloodstream form T. brucei (resazurin); details: for IC50: mean of triplicate ± SEM; for IC90: pH 7.4, read-out: T. brucei IC90
Description: T. brucei in the logarithmic phase of growth were diluted back to 2.5 × 10^4 mL^−1 and aliquoted into 96-well plates. The compounds were then added at a range of concentrations and the plates incubated at 37 °C. Each drug concentration was tested in triplicate. Resazurin was added after 48 h and the plates incubated for a further 16 h and the plates then read in a Spectramax plate reader. Results were analysed using GraphPad Prism.

[6] = tested on: rat skeletal myoblast L6 cells; assay: cells; details: L6, read-out: L6 cells IC50
Description: as §1

[7] = for Pe: PAMPA-BBB, PBS:EtOH 70:30, mean ± SD of three independent experiments; for Pe (prediction) of BBB permeation: class from PAMPA-BBB Pe
Description: (§2) Thus, the brain passive permeability of the novel compounds was evaluated in vitro through the widely used PAMPA-BBB method [[50]

[8] = commercial drugs for PAMPA-BBB validation; ref [2]; cited from earlier work
[9] = in vitro; details: pig, PAMPA
Description: as §2

[10] = tested on: rat skeletal myoblast L6 cells
Description: as §1

[11] = tested on: bloodstream form T. brucei (strain 221); details: read-out: T. brucei IC50; nifurtimox reference value; ref [49]; cited from earlier work
[12] = target: T1, Electrophorus electricus AChE (EeAChE); parameters: method as in PMID 24389509; details: same experimental conditions; ref [40]; cited from earlier work
[13] = tested on: human recombinant AChE (hAChE); parameters: method as in PMID 24389509; details: ref [40]; cited from earlier work
[14] = rat skeletal muscle L6 cells, SILi: selectivity index as the ratio of cytotoxic to anti-L. infantum IC50 values, L6 IC50 / L. infantum IC50
[15] = rat skeletal muscle L6 cells, SITb: selectivity index as the ratio of cytotoxic to anti-T. brucei IC50 values, L6 IC50 / T. brucei IC50
[16] = rat skeletal muscle L6 cells, SITc: selectivity index as the ratio of cytotoxic to anti-T. cruzi IC50 values, L6 IC50 / T. cruzi IC50
[17] = Trypanosoma cruzi, read-out: T. cruzi IC50, epimastigote form
[18] = read-out: T. cruzi IC50, epimastigote form
[19] = Trypanosoma brucei, pH 7.4, read-out: T. brucei IC50, bloodstream form, pH 7.4
[20] = read-out: T. brucei IC50, bloodstream form, pH 7.4

T1 sequence (O42275 24-633): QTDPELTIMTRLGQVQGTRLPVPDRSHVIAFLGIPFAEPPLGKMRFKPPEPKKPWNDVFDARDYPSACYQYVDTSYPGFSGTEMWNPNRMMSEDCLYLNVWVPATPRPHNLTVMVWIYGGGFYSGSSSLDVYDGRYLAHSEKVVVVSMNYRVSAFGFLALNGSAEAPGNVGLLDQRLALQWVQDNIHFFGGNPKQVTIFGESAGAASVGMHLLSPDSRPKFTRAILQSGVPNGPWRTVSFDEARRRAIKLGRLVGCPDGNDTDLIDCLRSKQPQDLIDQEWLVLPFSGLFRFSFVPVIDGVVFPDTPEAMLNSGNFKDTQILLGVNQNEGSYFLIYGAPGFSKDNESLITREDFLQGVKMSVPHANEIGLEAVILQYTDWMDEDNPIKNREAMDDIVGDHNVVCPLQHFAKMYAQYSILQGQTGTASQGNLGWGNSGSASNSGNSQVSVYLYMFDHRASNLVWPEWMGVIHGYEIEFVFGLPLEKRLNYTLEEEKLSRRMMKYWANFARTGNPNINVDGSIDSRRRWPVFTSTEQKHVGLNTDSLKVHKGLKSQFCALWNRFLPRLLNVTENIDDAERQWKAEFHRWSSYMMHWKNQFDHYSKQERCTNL

| SMILES | selectivity ratio at 6 days [1, 14] | selectivity ratio at 6 days [1, 15] | selectivity ratio at 6 days [1, 16] | IC50 [2, 17] | IC50 ([3]; Leishmania infantum) | IC50 [4] | IC50 [5, 19] | IC90 ([5]; Trypanosoma brucei) | IC50 [6] | Pe [7] | Pe (prediction) of BBB permeation [7] | also measured |
| --- | --- | --- | --- | --- | --- | --- | --- | --- | --- | --- | --- | --- |
| NCc1ccc(-c2nc3ccc(Cl)cc3c3c2CCCO3)cc1 [Compound 39, 4-{9-Chloro-3,4-dihydro-2H-pyrano[3,2-c]quinolin-5-yl}benzylamine] | 1.1 | 4.8 | 0.2 | ~30 µM | 6.1 ± 0.2 µM | > 30000 nM | 1500 nM | 1.77 ± 0.02 µM | 7 ± 0.19 µM | 15.5 ± 1.8 10^−6 cm s^−1 | CNS+ (compounds of high BBB permeation (CNS+): Pe (10^−6 cm s^−1) > 5.25) | IC50 [2, 18]: 29.2 ± 3.7 µM; inhibition at 30 µM [4]: 45%; IC50 [5, 20]: 1460 ± 20 nM |
| CN(C)CCCN1c2ccccc2Sc2ccccc21 [Promazine] |  |  |  |  |  |  |  |  |  |  |  | Pe, literature value [8]: 8.8 10–6 cm s–1 |
| CCn1cc(C(=O)O)c(=O)c2cc(F)c(N3CCNCC3)cc21 [Norfloxacin] |  |  |  |  |  |  |  |  |  |  |  | Papp [9]: 0.9 ± 0.02 ×10⁻⁶ cm/s |
| Clc1ccc2nc(-c3cccs3)c(CCCN3CCCC3)cc2c1 [Compound 49, N-{3-[6-Chloro-2-(2-thienyl)quinolin-3-yl]propyl}pyrrolidine] | 0.7 | 2.7 | 0.3 | 35.2 ± 12.6 µM | ~15 µM | ~30000 nM | ~5000 nM | 4.93 ± 0.17 µM | 9.44 ± 0.14 µM | 12.9 ± 0.1 10^−6 cm s^−1 | CNS+ (compounds of high BBB permeation (CNS+): Pe (10^−6 cm s^−1) > 5.25) | IC50 [3]: 13.1 ± 5.8 µM; inhibition at 30 µM [4]: 54%; IC50 [5, 20]: 3560 ± 170 nM |
| N#Cc1ccc(-c2nc3ccc(Cl)cc3c3c2CCCO3)cc1 [Compound 38, 4-{9-Chloro-3,4-dihydro-2H-pyrano[3,2-c]quinolin-5-yl}benzonitrile] | 1.5 | 3.8 | 0.2 | 178 ± 92 µM | 23.5 ± 2.4 µM | 2700 ± 450 nM | 9610 ± 270 nM | 13.7 ± 1 µM | 36.3 ± 8.1 µM | 29.7 ± 3.8 10^−6 cm s^−1 | CNS+ (compounds of high BBB permeation (CNS+): Pe (10^−6 cm s^−1) > 5.25) |  |
| O.O.O.O=C([O-])C(O)C(O)C(=O)[O-].O=C([O-])C(O)C(O)C(=O)[O-].[K+].[K+].[Sb].[Sb] (stereo not shown) [Sb (III), Potassium antimony (III) tartrate hydrate, reference compound] |  |  |  |  |  |  |  |  |  |  |  | IC50 [3]: 24.3 ± 1.7 µM; SILi: selectivity index as the ratio of cytotoxic to anti-L. infantum IC50 values [10]: 0.1 ^g |
| NCc1ccc(-c2nc3cc(Cl)ccc3c3c2CCCN3)cc1 [Compound 33, 4-{8-Chloro-1,2,3,4-tetrahydrobenzo[h][1,6]naphthyridin-5-yl}benzylamine] | 0.2 | 2.5 | 0.04 | 76.1 ± 3.2 µM | 13 ± 0.6 µM | 440 ± 40 nM | 1250 ± 50 nM | 2.12 ± 0.02 µM | 3.07 ± 0.66 µM | 4.0 ± 1.0 10^−6 cm s^−1 |  |  |
| CC1CS(=O)(=O)CCN1/N=C/c1ccc([N+](=O)[O-])o1 (stereo not shown) [nifurtimox, reference compound] |  |  |  |  |  |  |  |  | 32 ± 1.1 µM |  |  | selectivity ratio at 6 days ([1]; SITb: selectivity index as the ratio of cytotoxic to anti-T. brucei IC50 values): 7.3; IC50 [11]: 4.4 ± 0.7 µM |
| NCc1ccc(-c2nc3ccc(Cl)cc3c3c2CCN3)cc1 [Compound 30, 4-{8-Chloro-2,3-dihydro-1H-pyrrolo[3,2-c]quinolin-4-yl}benzylamine] | 0.4 | 2.8 | 0.1 | ~30 µM | 6.5 ± 1.4 µM | 870 ± 80 nM | 920 ± 50 nM | 1.57 ± 0.03 µM | 2.54 ± 0.92 µM | 7.4 ± 2.6 10^−6 cm s^−1 | CNS+ (compounds of high BBB permeation (CNS+): Pe (10^−6 cm s^−1) > 5.25) | IC50 [2, 18]: 37.3 ± 11 µM |
| CN1C(C(=O)Nc2ccccn2)=C(O)c2ccccc2S1(=O)=O [Piroxicam] |  |  |  |  |  |  |  |  |  |  |  | Pe, literature value [8]: 2.5 10–6 cm s–1 |
| NCc1ccc(-c2nc3ccc(Cl)cc3c3c2CCCCN3)cc1 [Compound 32, 4-{10-Chloro-2,3,4,5-tetrahydro-1H-azepino[3,2-c]quinolin-6-yl}benzylamine] | 1.5 | 3 | 0.2 | ~30 µM | 5 to 8 µM | 1200 ± 130 nM | 2330 ± 120 nM | 3.35 ± 0.05 µM | 7.02 ± 0.27 µM | 11.6 ± 0.2 10^−6 cm s^−1 | CNS+ (compounds of high BBB permeation (CNS+): Pe (10^−6 cm s^−1) > 5.25) | IC50 [2, 18]: 32.4 ± 0.6 µM; IC50 [3]: 4.8 ± 0.7 µM |
| CCNCc1ccc2nc(-c3ccc(Cl)cc3)c3c(c2c1)N(Cc1ccccc1)CCC3 [Compound 1] |  | 2.1 |  |  |  |  | 3330 ± 180 nM | 4.39 ± 0.04 µM | 7.08 ± 0.11 µM |  |  | IC50 [12]: 150 ± 10 nM; IC50 [13]: 940 nM |
| NCc1ccc(-c2nc3ccc(Cl)cc3c3c2CCCN3Cc2ccccc2)cc1 [Compound 3, 4-{1-Benzyl-9-chloro-1,2,3,4-tetrahydrobenzo[h][1,6]naphthyridin-5-yl}benzylamine] | 0.2 | 6.8 | 0.7 | 9.47 µM | ~30 µM | 3670 ± 550 nM | 1000 ± 30 nM | 1.19 ± 0.02 µM | 6.78 ± 1.26 µM | 7.4 ± 0.2 10^−6 cm s^−1 | CNS+ (compounds of high BBB permeation (CNS+): Pe (10^−6 cm s^−1) > 5.25) | IC50 [2, 18]: 9.5 ± 2.5 µM; IC50 [3]: 31.1 ± 2.9 µM |
| N#Cc1ccc(-c2nc3ccc(Cl)cc3c3c2CCCN3)cc1 [Compound 27, 4-{9-Chloro-1,2,3,4-tetrahydrobenzo[h][1,6]naphthyridin-5-yl}benzonitrile] | 2.5 | 6.4 | 0.3 | 147 ± 19 µM | 15.3 ± 3.6 µM | 1130 ± 170 nM | 6070 ± 540 nM | 10.5 ± 0.2 µM | 38.8 ± 1.7 µM | 14.3 ± 0.1 10^−6 cm s^−1 | CNS+ (compounds of high BBB permeation (CNS+): Pe (10^−6 cm s^−1) > 5.25) |  |
